The values that follow come from ChEMBL document CHEMBL2169741, “Analysis of the discriminative inhibition of mammalian digestive lipases by 3-phenyl substituted 1,3,4-oxadiazol-2(3H)-ones” (Eur J Med Chem, 2012).

The inhibition is the drop in the measured response relative to a control, in per cent.

Test [1] concerns the target T1, Bile salt-activated lipase (Homo sapiens) (UniProt P19835).
T1 sequence (whole entry): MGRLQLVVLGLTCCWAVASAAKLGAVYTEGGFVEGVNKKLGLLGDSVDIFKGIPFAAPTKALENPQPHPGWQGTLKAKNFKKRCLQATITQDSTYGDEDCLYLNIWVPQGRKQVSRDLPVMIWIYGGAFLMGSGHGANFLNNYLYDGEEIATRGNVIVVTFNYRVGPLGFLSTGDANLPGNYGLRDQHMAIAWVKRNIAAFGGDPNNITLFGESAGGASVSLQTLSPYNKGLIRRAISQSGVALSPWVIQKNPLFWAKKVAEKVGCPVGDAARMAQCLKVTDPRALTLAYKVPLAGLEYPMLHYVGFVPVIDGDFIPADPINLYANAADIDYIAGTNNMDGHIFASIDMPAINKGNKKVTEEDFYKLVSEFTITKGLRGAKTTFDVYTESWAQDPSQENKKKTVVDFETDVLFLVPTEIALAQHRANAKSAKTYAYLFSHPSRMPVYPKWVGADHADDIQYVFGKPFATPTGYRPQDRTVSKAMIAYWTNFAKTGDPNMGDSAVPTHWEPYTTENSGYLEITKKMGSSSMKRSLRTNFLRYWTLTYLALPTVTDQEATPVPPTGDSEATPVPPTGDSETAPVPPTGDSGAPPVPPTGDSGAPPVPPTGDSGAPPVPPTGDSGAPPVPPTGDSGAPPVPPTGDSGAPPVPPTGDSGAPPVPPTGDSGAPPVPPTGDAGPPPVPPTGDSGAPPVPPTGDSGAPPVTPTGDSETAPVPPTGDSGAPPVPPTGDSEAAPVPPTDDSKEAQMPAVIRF
Kind of test: Inhibition of human pancreatic CEH at 2 molar excess after 30 mins.

For test [2], the target named is T1, Bile salt-activated lipase (Homo sapiens). Kind of test: Inhibition of human pancreatic CEH at 20 molar excess after 30 mins.
Test [3] deals with T2, Gastric triacylglycerol lipase (Canis lupus familiaris) (UniProt P80035).
T2 sequence (whole entry): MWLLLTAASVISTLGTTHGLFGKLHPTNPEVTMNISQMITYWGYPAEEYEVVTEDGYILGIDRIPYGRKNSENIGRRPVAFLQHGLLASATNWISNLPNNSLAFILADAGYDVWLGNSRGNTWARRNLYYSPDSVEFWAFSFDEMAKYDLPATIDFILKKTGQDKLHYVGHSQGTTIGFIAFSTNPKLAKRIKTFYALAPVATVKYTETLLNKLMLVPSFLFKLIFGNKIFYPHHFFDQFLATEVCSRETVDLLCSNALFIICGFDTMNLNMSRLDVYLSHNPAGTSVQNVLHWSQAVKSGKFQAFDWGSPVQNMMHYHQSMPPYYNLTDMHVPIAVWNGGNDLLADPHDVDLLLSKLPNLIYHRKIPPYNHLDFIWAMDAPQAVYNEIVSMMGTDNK
Kind of test: Inhibition of recombinant DGL expressed in transgenic maize assessed as half inactivation time at 20 molar excess in presence of NaTDC.

Test [4] deals with T3, Pancreatic triacylglycerol lipase (Sus scrofa) (UniProt P00591).
T3 sequence (whole entry): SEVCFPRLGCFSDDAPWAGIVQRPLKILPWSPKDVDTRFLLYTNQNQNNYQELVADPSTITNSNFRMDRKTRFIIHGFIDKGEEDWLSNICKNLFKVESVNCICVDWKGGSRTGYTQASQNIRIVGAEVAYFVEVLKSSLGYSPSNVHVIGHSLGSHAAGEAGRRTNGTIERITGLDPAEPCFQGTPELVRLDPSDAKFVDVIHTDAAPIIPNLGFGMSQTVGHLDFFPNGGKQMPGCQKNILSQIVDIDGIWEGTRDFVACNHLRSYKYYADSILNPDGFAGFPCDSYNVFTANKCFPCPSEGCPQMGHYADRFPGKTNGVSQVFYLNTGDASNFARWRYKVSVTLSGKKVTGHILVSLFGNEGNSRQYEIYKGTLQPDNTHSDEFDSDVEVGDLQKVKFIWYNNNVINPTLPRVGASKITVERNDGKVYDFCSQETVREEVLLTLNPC
Kind of test: Inhibition of PPL after 30 mins in presence of NaTDC.

Test [5] addresses T2, Gastric triacylglycerol lipase (Canis lupus familiaris). Kind of test: Inhibition of recombinant DGL expressed in transgenic maize at 2 molar excess after 30 mins in presence of NaTDC.
The target of test [6] is T4, Pancreatic lipase-related protein 2 (Cavia porcellus) (UniProt P81139).
T4 sequence (whole entry): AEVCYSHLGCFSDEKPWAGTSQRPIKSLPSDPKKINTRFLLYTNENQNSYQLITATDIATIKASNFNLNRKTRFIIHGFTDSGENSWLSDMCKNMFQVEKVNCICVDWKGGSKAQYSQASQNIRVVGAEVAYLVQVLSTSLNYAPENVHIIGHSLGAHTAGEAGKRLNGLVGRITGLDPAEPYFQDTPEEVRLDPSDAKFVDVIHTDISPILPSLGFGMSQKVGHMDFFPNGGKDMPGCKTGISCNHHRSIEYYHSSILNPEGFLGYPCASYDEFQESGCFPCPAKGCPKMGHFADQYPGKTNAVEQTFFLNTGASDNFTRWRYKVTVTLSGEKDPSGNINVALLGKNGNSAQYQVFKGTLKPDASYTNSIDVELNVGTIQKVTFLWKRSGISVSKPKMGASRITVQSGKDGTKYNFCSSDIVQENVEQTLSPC
Kind of test: Inhibition of recombinant GPLRP2 expressed in Aspergillus oryzae assessed as half inactivation time at 2 molar excess in presence of NaTDC.

In test [7] the target is T4, Pancreatic lipase-related protein 2 (Cavia porcellus). Description: Inhibition of recombinant GPLRP2 expressed in Aspergillus oryzae at 20 molar excess after 30 mins in presence of NaTDC.
The target in test [8] is T3, Pancreatic triacylglycerol lipase (Sus scrofa). Kind of test: Inhibition of PPL assessed as half inactivation time at 100 molar excess in presence of NaTDC.
Test [9] concerns the target T1, Bile salt-activated lipase (Homo sapiens). Kind of test: Inhibition of human pancreatic CEH assessed as half inactivation time at 4 molar excess.
Test [10] addresses T5, Pancreatic triacylglycerol lipase (Homo sapiens) (UniProt P16233).
T5 sequence (whole entry): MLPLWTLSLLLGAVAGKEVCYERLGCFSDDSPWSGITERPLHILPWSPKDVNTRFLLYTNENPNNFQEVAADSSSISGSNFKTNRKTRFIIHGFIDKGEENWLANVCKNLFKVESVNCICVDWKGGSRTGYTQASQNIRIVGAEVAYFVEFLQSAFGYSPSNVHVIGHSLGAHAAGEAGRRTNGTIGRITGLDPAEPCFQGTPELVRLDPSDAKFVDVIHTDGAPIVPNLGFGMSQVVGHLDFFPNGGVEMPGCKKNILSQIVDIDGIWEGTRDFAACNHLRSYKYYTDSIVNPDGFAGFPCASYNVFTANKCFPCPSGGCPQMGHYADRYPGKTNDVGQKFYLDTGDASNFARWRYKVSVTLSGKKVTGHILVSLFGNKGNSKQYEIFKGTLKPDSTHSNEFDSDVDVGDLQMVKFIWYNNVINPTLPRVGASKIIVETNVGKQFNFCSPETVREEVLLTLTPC
Kind of test: Inhibition of recombinant HPL expressed in Pichia pastoris assessed as half inactivation time at 100 molar excess in presence of NaTDC.

Test [11] deals with T1, Bile salt-activated lipase (Homo sapiens). Description: Inhibition of human pancreatic CEH after 30 mins.
In test [12] the target is T4, Pancreatic lipase-related protein 2 (Cavia porcellus). Kind of test: Inhibition of recombinant GPLRP2 expressed in Aspergillus oryzae after 30 mins in presence of NaTDC.

The source made the active and inactive calls. The calls are words filed in the database; no cut-off is given here.

With `CCCCCCCCCCC[C@@H](C[C@@H]1OC(=O)[C@H]1CCCCCC)OC(=O)[C@H](CC(C)C)NC=O`, the inhibition in [1] was 80.1%; in test [2], 83.6%; in test [5] it was 51.5%; in test [7] it was 87.3%. In addition, the T1/2 in [3] stood at 0.59 min; in test [6], 0.4 min; in test [8], 1.66 min; in test [9], 0.52 min; in test [10], 1.64 min. Besides, the XI50 in test [4] is 2.76 molar excess; in test [11], 0.78 molar excess.

As to `COc1nn(-c2ccccc2)c(=O)o1`, the inhibition in test [1] was 71.6%; in test [2] it was 81.3%; in test [5], 1.4%; in test [7], 86%. Besides, the XI50 in [12] was 0.74 molar excess; in [4], > 400 molar excess; in test [11] it was 0.77 molar excess. Further, the T1/2 was > 60 min in test [3], 9.97 min in test [6], > 60 min in [8] and 1 min in test [9]. The inhibition result in test [10] was “inactive”.

As for `COc1nn(-c2cccc(Oc3ccccc3)c2)c(=O)o1`, the inhibition in test [1] is 54.5%; in test [2] it was 84.7%; in [5], 10.9%; in test [7], 90.4%. Further, the XI50 in [12] is 0.77 molar excess; in test [4], 26.5 molar excess; in [11] it was 1.48 molar excess. The T1/2 is 1.88 min in [3]; 0.46 min in test [6]; 1.69 min in [8]; 0.9 min in test [9]; > 120 min in test [10].

As to `COc1nn(-c2ccc(Oc3ccccc3)cc2)c(=O)o1`, the inhibition in [1] was 77.1%; in test [2] it was 78.6%; in test [5], 12.4%; in test [7], 23.6%. Moreover, the values for the XI50 in test [12], in [4] and in [11] were > 40 molar excess, 57.6 molar excess and 0.93 molar excess, respectively. In addition, the T1/2 was 9.31 min in test [3]; > 60 min in test [6]; 1.84 min in test [8]; 1.43 min in test [9]; > 120 min in [10].
